The test system of this test is cigarette smoke exposed guinea pigs. The experiment in a line: cigarette smoke-induced COPD model in guinea pigs; specific airway resistance (sRaw) by double body plethysmograph. It counts as in vivo, Hartley guinea pigs. As to the method:
The effect of the FK506 Substance on the cigarette smoke-induced COPD model in guinea pigs was confirmed in the following manner.
1. Hartley guinea pigs were exposed to cigarette smoke in a nose-only inhalation chamber for 60 min/day, 5 days/week, for 4 weeks. Animals of the negative control group were exposed to the air.
2. FK506 Substance in the form of a solid dispersion composition, which was prepared in a similar manner to that of Example 1 (above), or its placebo was given orally, after suspension in water, every day about 1 hr before the cigarette smoke exposure.
3. Specific airway resistance (sRaw) was measured as a respiratory function parameter at 0, 1, 2, 3 and 4 weeks after the start of cigarette smoke inhalation by a double body plethysmograph method (Ref. 1).
Reference • Ref. 1; Pennock B E, Cox C P, Rogers R M, Cain W A, Wells J H. A Noninvasive technique for measurement of changes in specific airway resistance. J Appl Physiol. 1979 February; 46(2):399-406. Results

Turning to `C=CCC1C=C(C)CC(C)CC(OC)C2OC(O)(C(=O)C(=O)N3CCCCC3C(=O)OC(C(C)=CC3CCC(O)C(OC)C3)C(C)C(O)CC1=O)C(C)CC2OC` (centres unmarked) [FK506, 17-allyl-1,14-dihydroxy-12-[2-(4-hydroxy-3-methoxycyclohexyl)-1-methylvinyl]-23,25-dimethoxy-13,19,21,27-tetramethyl-11,28-dioxa-4-azatricyclo[22.3.1.0^4,9]octacos-18-ene-2,3,10,16-tetraone], the sRaw is listed as 1.815 ± 0.073 cmH2O × mL/(mL/sec) (FK506 0.32 mg/kg orally every day, 1 week of cigarette smoke exposure); 2.089 ± 0.054 cmH2O × mL/(mL/sec) (FK506 0.32 mg/kg orally every day, 2 weeks of cigarette smoke exposure); 2.476 ± 0.112 cmH2O × mL/(mL/sec) (FK506 0.32 mg/kg orally every day, 3 weeks of cigarette smoke exposure); 2.636 ± 0.133 cmH2O × mL/(mL/sec) (FK506 0.32 mg/kg orally every day, 4 weeks of cigarette smoke exposure); 1.892 ± 0.048 cmH2O × mL/(mL/sec) (FK506 0.32 mg/kg orally every day, pre (0 weeks), n=8); 1.844 ± 0.123 cmH2O × mL/(mL/sec) (FK506 1 mg/kg orally every day, 1 week of cigarette smoke exposure). In addition, the sRaw is listed as 2.012 ± 0.103 cmH2O × mL/(mL/sec) (FK506 1 mg/kg orally every day, 2 weeks of cigarette smoke exposure); 2.372 ± 0.167 cmH2O × mL/(mL/sec) (FK506 1 mg/kg orally every day, 3 weeks of cigarette smoke exposure); 2.763 ± 0.276 cmH2O × mL/(mL/sec) (FK506 1 mg/kg orally every day, 4 weeks of cigarette smoke exposure); 1.899 ± 0.064 cmH2O × mL/(mL/sec) (FK506 1 mg/kg orally every day, pre (0 weeks), n=8). Further, the “effect on decline of the respiratory function (increase of sRaw) caused by cigarette smoke” value (orally given, cigarette smoke exposed guinea pigs) is “significantly suppressed the decline of the respiratory function”.

For the origin of these results see US20050143411A1, “Method for treating pulmonary disease” (Fujisawa Pharmaceutical Co., Ltd., priority 2003, published 2005).
